Patent US20060240494A1, “Biocidal molecules, macromolecular targets and methods of production and use” (priority 2000, published 2006)
pIC50, pKd: −log10 of the molar value. “And” between values parts separate entries of the source, which are not always exact repeats. Equal entries are not always repeated. Where two headings read alike, the source gives them in different places. Non-standard residues stand in square brackets, D forms with d. Residues, ends and D or L forms follow the SMILES beside them. No end group written: not given here. Ac6c = NC1(C(=O)O)CCCCC1; Dap = NC[C@H](N)C(=O)O

Key:
M. luteus = test: Growth inhibition assay, M. luteus; type: cell-based, Micrococcus luteus; conditions: Luria-Bertani rich nutrient medium
Procedure: Growth inhibition assays are performed using the candidate antibacterial compounds and the Gram positive microorganisms Micrococcus luteus and Bacillus megaterium, and the Gram negative microorganisms, Escherichia coli D22, Agrobacterium tumefaciens, and Salmonella typhimurium. Antibacterial assays are performed in sterilized 96-well plates (Nunc F96 microtiter plates) with a final volume of 100 μl as described in Bulet (1996), cited above. Briefly, 90 μl of a suspension of a midlogarithmic phase bacterial culture at an initial 600 nm UV absorbance of 0.001 in Luria-Bertani rich nutrient medium is added to 10 μl of serially diluted candidate compounds in sterilized water. The final compound concentrations range between 0.15 and 80 μM, and more preferably between 0.3 μM and 40 μM. The plates are incubated at 30° C. for 24 hours with gentle shaking, and the growth inhibition is measured by recording the increase of the UV absorbance at 600 nm on an SLT Labinstruments 400 ATC microplate reader. The experiments are conducted over a 7-month period.
The inhibitory concentrations (IC50) of each candidate compound is determined against each above-indicated microorganism.
As one example, this in vitro antibacterial assay was performed on a broad spectrum divalent pyrrhocoricin analog, Chex-Pyrrhocoricin-2-19-Dap-[Chex-Pyrrhocoricin-2-19-Dap(Ac)], and the results illustrated in Table 4.

[1] = system: β-galactosidase activities of live E. coli TG-1 cells; type: cell-based; conditions: for Inhibition of enzymatic activity after 1 hour (%) β-Galactosidase: peptide 32 μg/mL, live E. coli TG-1, three independent assays
[2] = system: alkaline phosphatase activities of live E. coli TG-1 cells; type: cell-based; conditions: peptide 32 μg/mL; live E. coli TG-1; four independent assays
recombinant E. coli DnaK = target: T1, recombinant E. coli DnaK (Escherichia coli, UniProt P0A6Y8); test: EnzChek ATPase assay, recombinant DnaK; type: biochemical; conditions: 50 molar equivalents of peptide; 22° C., 30 min; UV absorbance at 360 nm
T1 construct: purchased StressGen, Victoria, Canada
T1 sequence (P0A6Y8 whole entry): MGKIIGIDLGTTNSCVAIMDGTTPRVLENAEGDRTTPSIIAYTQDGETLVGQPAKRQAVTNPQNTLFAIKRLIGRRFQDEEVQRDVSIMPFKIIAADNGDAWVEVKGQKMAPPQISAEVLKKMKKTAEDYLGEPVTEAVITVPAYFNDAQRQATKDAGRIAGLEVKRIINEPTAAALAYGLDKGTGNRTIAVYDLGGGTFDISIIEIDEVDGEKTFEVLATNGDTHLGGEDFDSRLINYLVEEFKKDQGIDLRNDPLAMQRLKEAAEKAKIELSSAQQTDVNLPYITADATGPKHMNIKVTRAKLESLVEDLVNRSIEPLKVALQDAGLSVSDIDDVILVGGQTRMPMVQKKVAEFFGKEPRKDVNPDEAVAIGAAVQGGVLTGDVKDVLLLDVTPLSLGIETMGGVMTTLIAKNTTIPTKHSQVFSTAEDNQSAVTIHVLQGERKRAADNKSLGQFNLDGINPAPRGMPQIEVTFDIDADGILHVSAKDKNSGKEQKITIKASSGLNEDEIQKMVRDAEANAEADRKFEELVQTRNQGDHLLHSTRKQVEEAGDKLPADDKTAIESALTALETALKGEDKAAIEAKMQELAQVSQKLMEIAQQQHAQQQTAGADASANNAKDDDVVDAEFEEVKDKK
Text: To determine whether the proline-rich antibacterial peptides that were predicted to bind to DnaK between the peptide binding pocket and the C-terminus would interfere with ATPase activity, a recently developed continuous spectrophotometric (colorimetric) ATPase activity assay [Rieger, C. E. et al, (1997) Anal. Biochem. 246: 86-95] was used. This assay uses using 2-amino-6-mercapto-7-methylpurine ribonucleoside (MESG)/purine nucleoside phosphorylase reaction to detect the released inorganic phosphate (EnzChek ATPase determination kit from Molecular Probes, Eugene, USA). Assays were performed in 500 μL tubes in duplicates in a total volume of 125 μL containing 20 mM tris(hydroxymethyl)amino-ethane (Tris)-HCl, pH 7.6, 1 mM MgCl2, […] (except in assaying the baseline), 5 μg of DnaK (recombinant DnaK protein from StressGen,Victoria, Canada) and 50 molar equivalents of the particular peptide, MESG and the purine nucleoside phosphorylase recommended by the manufacturer. After incubation at 22° C. for 30 min, 100 μL of the reaction mixture was transferred to a quartz cuvette and the ultraviolet (UV) absorbance at 360 nm was measured. The assay was run in a miniaturized form to increase the concentration and therefore the enzymatic activity of DnaK. In a larger, standard format the ATPase activity of DnaK without peptide addition was 6 pmol/μg/min, in line with the published data of 4 pmol/μg/min [Liberek, K. et al, (1991) Proc. Natl. Acad. Sci. USA 88: 2874-2878].

[3] = target: E. coli DnaK fragment aa588-615 (Escherichia coli, UniProt P0A6Y8); test: Fluorescence polarization with synthetic DnaK fragment aa588-615; type: binding
E. coli DnaK fragment aa588-615, sequence (P0A6Y8 589-616 limits assumed): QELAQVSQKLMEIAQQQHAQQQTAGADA

E. coli DnaK aa583-615 = E. coli DnaK aa583-615 (Escherichia coli, UniProt P0A6Y8); test: Circular dichroism of peptide - E. coli DnaK fragment mixtures; type: binding; conditions: DnaK spectrum subtracted from mixture
E. coli DnaK aa583-615, sequence (P0A6Y8 584-616 limits assumed): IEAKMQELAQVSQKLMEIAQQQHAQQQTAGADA
Text: CD spectra are taken in water, and water-trifluoroethanol (TFE) mixtures to determine whether the characteristic unordered or turn→α-helix conformational transition, frequently observed for peptide fragments of helical domains of proteins, occurs at identical TFE concentrations. In pure water, the CD spectra of the E. coli and S. aureus DnaK fragments could be assigned as a type C spectrum, and reflect the dominance of type I (III) β-turns, or a mixture of type I and type II turns. […] This is an unmistakable indication of the appearance of helical structures, most likely 310-helices. The two DnaK fragments behaved identically, at least in spectral terms. While the spectral features of well-developed α-helices could already be seen at a TFE concentration as low as 10%, the intensity was increased with increasing TFE content. In 100% TFE a fully α-helical spectrum was recorded.
To estimate the bound conformation of the antibacterial peptides, the spectra of drosocin or pyrrhocoricin alone, as well as those of the E. coli and S. aureus DnaK fragments were recorded, followed by the recording of the CD spectra of antibacterial peptide-DnaK fragment mixtures. […]

[4] = within a four-hour period; Hoffmann et al, 1999; cited from earlier work
[5] = within a four-hour period; Hoffmann et al, 1999; cited from earlier work; remark: listed apart in the source
Ras = test: Competition fluorescence polarization against labeled pyrrhocoricin, Ras; type: binding; conditions: 4 μM Ras reading 52±7
Hsp70 = Hsp70 (Homo sapiens, UniProt P0DMV8); test: EnzChek ATPase assay, recombinant Hsp70; type: biochemical; conditions: human equivalent of DnaK
Hsp70, sequence (P0DMV8 whole entry, the tested form may be a part): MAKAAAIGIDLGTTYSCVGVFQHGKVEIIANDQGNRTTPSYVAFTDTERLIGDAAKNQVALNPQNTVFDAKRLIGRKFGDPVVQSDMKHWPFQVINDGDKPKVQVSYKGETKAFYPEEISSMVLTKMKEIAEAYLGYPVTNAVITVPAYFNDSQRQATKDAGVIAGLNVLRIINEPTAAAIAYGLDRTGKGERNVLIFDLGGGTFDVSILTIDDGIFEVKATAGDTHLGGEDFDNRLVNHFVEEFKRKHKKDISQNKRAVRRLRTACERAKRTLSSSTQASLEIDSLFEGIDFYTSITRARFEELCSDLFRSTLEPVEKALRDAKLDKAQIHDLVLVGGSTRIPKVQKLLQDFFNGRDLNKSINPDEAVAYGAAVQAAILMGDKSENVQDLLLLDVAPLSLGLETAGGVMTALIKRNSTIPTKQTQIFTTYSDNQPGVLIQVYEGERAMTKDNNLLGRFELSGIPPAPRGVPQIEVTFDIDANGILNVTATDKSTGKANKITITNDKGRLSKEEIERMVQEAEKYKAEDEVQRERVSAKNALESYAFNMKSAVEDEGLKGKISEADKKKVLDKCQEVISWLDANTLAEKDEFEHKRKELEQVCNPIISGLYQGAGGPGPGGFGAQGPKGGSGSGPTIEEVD

[6] = target: E. coli DnaK fragment aa583-615 (D-E helix hinge) (Escherichia coli, UniProt P0A6Y8); test: Fluorescence polarization with synthetic DnaK fragment aa583-615; type: binding
E. coli DnaK fragment aa583-615 (D-E helix hinge), sequence (P0A6Y8 584-616): as the sequence (P0A6Y8 584-616 limits assumed) above
Procedure: The binding of the synthetic DnaK fragments to their fluorescein-labeled pyrrhocoricin counterparts was also assessed in solution, by fluorescence polarization [Lundblad, J. R. et al, (1996) Mol. Endocrinol. 10: 607-612]. For these experiments, the unlabeled peptides were serially diluted in PBS (pH 7.4) or 0.1 M Tris-HCl (pH 8.0) containing 0.1 M ethylene-diamine-tetraacetic acid (EDTA) in 50 μL final volume in 6×50 mm disposable glass borosilicate tubes. The fluoresceinated peptides were added to each tube in a 50 μL aliquot to a final concentration of 1 nM and tubes were incubated at 37° C. for 5 minutes. The extent of fluorescence anisotropy was measured on a Beacon 2000 fluorescence polarization instrument (PanVera, Madison, Wis.) and calculated as millipolarization values. The filters used were 485 nm excitation and 535 nm emission with 3 nm band width. Non-linear curve fitting was done by using a dose-response logistical transition [y=a0+a1/(1+x/a2)^a^3] and the Levenberg-Marquardt Algorithm within the SlideWrite software package. The provided Kd value (a2 coefficient) was calculated by the program.
To quantitatively characterize the pyrrhocoricin—D-E helix interaction, the complete binding curves were measured for E. coli DnaK fragments aa583-615 and aa588-615, both of SEQ ID NO: 10.

bacteria = test: Bacterial killing by labeled and unlabeled pyrrhocoricin; type: cell-based
[7] = system: E. coli strain (ATCC 25922); test: Validated antibacterial assay conditions, E. coli ATCC 25922; type: cell-based
[8] = target: S. aureus aa554-585 DnaK fragment (Staphylococcus aureus, UniProt P45554); test: Circular dichroism of peptide - S. aureus DnaK fragment mixtures; type: binding; conditions: wavelength of band maxima
S. aureus aa554-585 DnaK fragment, sequence (P45554 554-585 limits assumed): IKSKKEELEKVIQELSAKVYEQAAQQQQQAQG
Procedure: To estimate the bound conformation of the antibacterial peptides, the spectra of drosocin or pyrrhocoricin alone, as well as those of the E. coli and S. aureus DnaK fragments were recorded, followed by the recording of the CD spectra of antibacterial peptide-DnaK fragment mixtures. Finally the original spectra of the DnaK peptides were subtracted from the spectra of the mixtures, and the residual spectra, representing the conformation of the bound peptides were compared to the spectra of the antibacterial peptides alone. This exercise is justifiable only if the conformation of the protein fragments remain unchanged upon interaction with drosocin or pyrrhocoricin. […] It is expected that the binding will not modify the helix structure of the rigid DnaK fragments, but can influence the conformation of the flexible antibacterial peptides.
The results of this conformational analysis for pyrrhocoricin—E. coli DnaK interaction are as follows. The CD spectrum of the mixture of the two peptides resembled that of the DnaK fragment alone, except that the intensities were lower, due to the lower intensity of the CD spectrum of pyrrhocoricin.
To ascertain that this conformational change upon binding was not a spectroscopical artifact, the procedure was repeated with pyrrhocoricin and the DnaK peptide derived from the non-responsive strain S. aureus.

S. aureus = conditions: Otvos et al, 2000, Biochemistry; cited from earlier work
E. coli D22 = conditions: Otvos et al, 2000, Protein Science; cited from earlier work
E. coli infection = conditions: Otvos et al, 2000, cited from earlier work
GroEL = GroEL (Escherichia coli, UniProt P0A6F5); type: binding, E. coli; design: purchased; host or cells: E. coli; conditions: then 1 nM fluorescein-K-pyrrhocoricin, no peptide 70 ± 10
GroEL, sequence (P0A6F5 2-548 limits assumed): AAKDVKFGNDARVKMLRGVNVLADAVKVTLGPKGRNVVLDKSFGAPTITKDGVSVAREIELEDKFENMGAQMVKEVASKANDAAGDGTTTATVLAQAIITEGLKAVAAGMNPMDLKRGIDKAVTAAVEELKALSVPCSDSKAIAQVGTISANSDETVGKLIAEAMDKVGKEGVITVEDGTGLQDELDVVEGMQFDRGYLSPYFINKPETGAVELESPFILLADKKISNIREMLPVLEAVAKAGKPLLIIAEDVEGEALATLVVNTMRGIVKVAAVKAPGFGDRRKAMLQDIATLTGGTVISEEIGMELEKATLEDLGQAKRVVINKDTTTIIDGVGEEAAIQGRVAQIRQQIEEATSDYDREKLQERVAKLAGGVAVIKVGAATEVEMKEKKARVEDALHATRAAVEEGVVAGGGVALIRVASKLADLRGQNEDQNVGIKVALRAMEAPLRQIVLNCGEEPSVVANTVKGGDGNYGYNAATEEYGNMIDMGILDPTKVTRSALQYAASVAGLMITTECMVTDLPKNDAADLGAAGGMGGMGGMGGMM

DnaK = DnaK (Escherichia coli, UniProt P0A6Y8); type: binding, E. coli; design: purchased; host or cells: E. coli
DnaK, sequence (P0A6Y8 whole entry): as the sequence (P0A6Y8 whole entry) above

Q: With `CC[C@H](C)[C@H](NC(=O)[C@@H]1CCCN1C(=O)[C@H](CCCNC(=N)N)NC(=O)[C@@H]1CCCN1C(=O)[C@@H]1CCCN1C(=O)[C@@H](NC(=O)[C@@H]1CCCN1C(=O)[C@H](CCCNC(=N)N)NC(=O)[C@@H]1CCCN1C(=O)[C@H](CC(C)C)NC(=O)[C@H](Cc1ccc(O)cc1)NC(=O)[C@H](CO)NC(=O)CNC(=O)[C@H](CCCCN)NC(=O)[C@H](CC(=O)O)NC(=O)C1(NC(=O)[C@H](CN)NC(=O)[C@H](CCCNC(=N)N)NC(=O)[C@H](CC(N)=O)NC(=O)[C@H](Cc2ccc(O)cc2)NC(=O)[C@@H](NC(=O)[C@@H]2CCCN2C(=O)[C@H](CCCNC(=N)N)NC(=O)[C@@H]2CCCN2C(=O)[C@@H]2CCCN2C(=O)[C@@H](NC(=O)[C@@H]2CCCN2C(=O)[C@H](CCCNC(=N)N)NC(=O)[C@@H]2CCCN2C(=O)[C@H](CC(C)C)NC(=O)[C@H](Cc2ccc(O)cc2)NC(=O)[C@H](CO)NC(=O)CNC(=O)[C@H](CCCCN)NC(=O)[C@H](CC(=O)O)NC(=O)C2(N)CCCCC2)[C@@H](C)O)[C@@H](C)CC)CCCCC1)[C@@H](C)O)C(=O)N[C@@H](Cc1ccc(O)cc1)C(=O)N[C@@H](CC(N)=O)C(=O)N[C@@H](CCCNC(=N)N)C(=O)N[C@@H](CNC(C)=O)C(=O)O` [Chex-Pyrrhocoricin-2-19-Dap-[Chex-Pyrrhocoricin-2-19-Dap(Ac)]] (H-[Ac6c]DKGSYLPRPTPPRPIYNR[Dap][Ac6c]DKGSYLPRPTPPRPIYNR[Dap](Ac)-OH; C-terminus assumed) as the molecule, how does the pIC50 (M. luteus) read?
A: 4.10 to 4.40

Q: Which “effect on β-galactosidase activity after 6 hours” value ([1]; 32 μg/mL, FIG. 2A) does the source give for GKPRPYSPRPTSHPRPIRV [Drosocin] here?
A: detrimental

Q: What about the “Inhibition of enzymatic activity after 1 hour (%) β-Galactosidase” value [1] of the same molecule?
A: 98 ± 68%

Q: And the “Inhibition of enzymatic activity after 1 hour (%) Alkaline Phosphatase” value [2]?
A: 35 ± 27%

Q: What about the “effect on ATPase activity of recombinant DnaK” value (recombinant E. coli DnaK) of the same molecule?
A: without affecting

Q: What about the “binding to aa588-615 fragment” value [3] of the same molecule?
A: considerably weaker than pyrrhocoricin

Q: What about the “CD spectral change of the peptide upon mixing with DnaK fragment” value (E. coli DnaK aa583-615) of the same molecule?
A: did not appear to modify the conformation

Q: What about the “degradation in diluted human serum” value [4] of the same molecule?
A: completely degraded

Q: What about the “degradation in diluted mouse serum” value [5] of the same molecule?
A: completely degraded

Q: Which results are given for VDKGSYLPRPTPPRPIYNRN [pyrrhocoricin]?
A: decrease of the Ras readings (Ras; preincubation with 4 μM peptide): 16 millipolarization units; decrease of the Ras readings (Ras; preincubation with 8 μM peptide): 27 millipolarization units; Inhibition of enzymatic activity after 1 hour (%) β-Galactosidase [1]: 153 ± 57%; Inhibition of enzymatic activity after 1 hour (%) Alkaline Phosphatase [2]: 32 ± 16%; effect on ATPase activity of recombinant DnaK (recombinant E. coli DnaK): less than half of the original value; effect on ATPase activity of recombinant Hsp70 (Hsp70): did not influence; pKd [6]: 4.29; concentration range killing bacteria (bacteria): mid-nanomolar concentration range; killing of E. coli ATCC 25922 [7]: failed to kill; CD spectral change of the peptide upon mixing with DnaK fragment (E. coli DnaK aa583-615): redshift of both pyrrhocoricin bands; CD spectral change of the peptide upon mixing with DnaK fragment [8]: remained unchanged; activity against S. aureus in vitro (S. aureus): inactive; killing of E. coli D22 (E. coli D22): nanomolar concentrations; toxicity in vivo (E. coli infection; higher dose for pyrrhocoricin, compromised animals): toxic to compromised animals; protection of mice against E. coli infection (E. coli infection; low doses for pyrrhocoricin): protected mice; Millipolarization after preincubation with (GroEL; 4 μM GroEL preincubated with 4 μM unlabeled peptide, corrected with Ras readings): 62; Millipolarization after preincubation with (GroEL; 4 μM GroEL preincubated with 8 μM unlabeled peptide): 62; Millipolarization after preincubation with (DnaK): 110 and 84
